Source: ChEMBL document CHEMBL1157163, “In vitro permeability and metabolic stability of bile pigments and the effects of hydrophilic and lipophilic modification of biliverdin” (Bioorg Med Chem, 2008)

Assays:
[1] = Apparent permeability across human Caco-2 cells; format: ADME, cell-based
[2] = Apparent permeability across human Caco-2 cells in presence of BSA in basolateral chamber; format: ADME, cell-based
[3] = Metabolic stability in presence of BSA; format: ADME
[4] = Toxicity against rat erythrocytes assessed as induction of hemolysis at >= 1000 uM; format: cell-based; conditions: erythrocyte
[5] = Toxicity against rat erythrocytes assessed as decrease in hemolysis in presence of BSA; format: cell-based; conditions: erythrocyte
Caco-2 = assay: Metabolic stability in human Caco-2 cell homogenate; format: ADME, cell-based
[6] = Toxicity against rat erythrocytes assessed as hemolysis upto 1000 uM; format: cell-based; conditions: erythrocyte
[7] = Toxicity against rat erythrocytes assessed as hemolysis upto 1000 uM in presence of BSA; format: cell-based; conditions: erythrocyte

SMILES: C=CC1=C(C)/C(=C/c2[nH]c(Cc3[nH]c(/C=C4\NC(=O)C(C)=C4C=C)c(C)c3CCC(=O)O)c(CCC(=O)O)c2C)NC1=O [BILIRUBIN]
- Papp [1]: 0.02 ×10⁻⁶ cm/s
- Papp [2]: 1.04 ×10⁻⁶ cm/s
- Stability [3]: 0.33 %/min
- Activity [4]: Toxic
- Activity [5]: Non-toxic

SMILES: C=CC1=C(C)/C(=C/C2=NC(=C\c3[nH]c(/C=C4\NC(=O)C(C)=C4C=C)c(C)c3CCC(=O)O)/C(CCC(=O)O)=C2C)NC1=O [BILIVERDIN]
- Papp [1]: 1.01 ×10⁻⁶ cm/s
- Papp [2]: 3.7 ×10⁻⁶ cm/s
- Stability (Caco-2): Stable
- Stability [3]: Stable
- Activity [6]: Non-toxic
- Activity [7]: Non-toxic

SMILES: C=CC1=C(C)/C(=C/C2=NC(=C\c3[nH]c(/C=C4\NC(=O)C(C)=C4C=C)c(C)c3CCC(=O)N[C@H]3C(O)O[C@H](CO)[C@@H](O)[C@@H]3O)/C(CCC(=O)N[C@@H]3C(O)O[C@@H](CO)[C@H](O)[C@H]3O)=C2C)NC1=O (some centres undefined) [BILIVERDIN DIGLUCOSAMINE]
- Stability (Caco-2): Stable
- Stability [3]: Stable

SMILES: C=CC1=C(C)/C(=C/c2[nH]c(Cc3[nH]c(/C=C4\NC(=O)C(C)=C4C=C)c(C)c3CCC(=O)NCCS(=O)(=O)O)c(CCC(=O)NCCS(=O)(=O)O)c2C)NC1=O [BILIRUBIN DITAURATE]
- Papp [1]: 0.39 ×10⁻⁶ cm/s
- Papp [2]: 3.52 ×10⁻⁶ cm/s
- Stability (Caco-2): Stable
- Stability [3]: Stable
- Activity [6]: Non-toxic
- Activity [7]: Non-toxic
